Laboratory results from patent US20250017889A1, “INHIBITORS OF P1B-TYPE ATPASES” (THE CURATORS OF THE UNIVERSITY OF MISSOURI, priority 2021, published 2025).

What was measured:
4T1 cells = test: Sensitivity of 4T1 cells to metal ions, crystal violet assay; assay type: cell-based
Procedure: All metals were added as chloride salts except silver, which was added as silver nitrate (AgNO3).

human ATP7A (hATP7A) = molecular target: T1, human ATP7A (hATP7A) (Homo sapiens, UniProt Q04656); test: Tyrosinase activation in B16 ATP7A^KO cells transfected with human ATP7A; assay type: cell-based; details: 10 μM, 24 h, ATP7A^KO melanoma cells
T1 construct: expressed in transfected cells; host or cells: B16 melanoma ATP7A^KO cells (mouse), transient transfection
T1 sequence (Q04656 1-1500): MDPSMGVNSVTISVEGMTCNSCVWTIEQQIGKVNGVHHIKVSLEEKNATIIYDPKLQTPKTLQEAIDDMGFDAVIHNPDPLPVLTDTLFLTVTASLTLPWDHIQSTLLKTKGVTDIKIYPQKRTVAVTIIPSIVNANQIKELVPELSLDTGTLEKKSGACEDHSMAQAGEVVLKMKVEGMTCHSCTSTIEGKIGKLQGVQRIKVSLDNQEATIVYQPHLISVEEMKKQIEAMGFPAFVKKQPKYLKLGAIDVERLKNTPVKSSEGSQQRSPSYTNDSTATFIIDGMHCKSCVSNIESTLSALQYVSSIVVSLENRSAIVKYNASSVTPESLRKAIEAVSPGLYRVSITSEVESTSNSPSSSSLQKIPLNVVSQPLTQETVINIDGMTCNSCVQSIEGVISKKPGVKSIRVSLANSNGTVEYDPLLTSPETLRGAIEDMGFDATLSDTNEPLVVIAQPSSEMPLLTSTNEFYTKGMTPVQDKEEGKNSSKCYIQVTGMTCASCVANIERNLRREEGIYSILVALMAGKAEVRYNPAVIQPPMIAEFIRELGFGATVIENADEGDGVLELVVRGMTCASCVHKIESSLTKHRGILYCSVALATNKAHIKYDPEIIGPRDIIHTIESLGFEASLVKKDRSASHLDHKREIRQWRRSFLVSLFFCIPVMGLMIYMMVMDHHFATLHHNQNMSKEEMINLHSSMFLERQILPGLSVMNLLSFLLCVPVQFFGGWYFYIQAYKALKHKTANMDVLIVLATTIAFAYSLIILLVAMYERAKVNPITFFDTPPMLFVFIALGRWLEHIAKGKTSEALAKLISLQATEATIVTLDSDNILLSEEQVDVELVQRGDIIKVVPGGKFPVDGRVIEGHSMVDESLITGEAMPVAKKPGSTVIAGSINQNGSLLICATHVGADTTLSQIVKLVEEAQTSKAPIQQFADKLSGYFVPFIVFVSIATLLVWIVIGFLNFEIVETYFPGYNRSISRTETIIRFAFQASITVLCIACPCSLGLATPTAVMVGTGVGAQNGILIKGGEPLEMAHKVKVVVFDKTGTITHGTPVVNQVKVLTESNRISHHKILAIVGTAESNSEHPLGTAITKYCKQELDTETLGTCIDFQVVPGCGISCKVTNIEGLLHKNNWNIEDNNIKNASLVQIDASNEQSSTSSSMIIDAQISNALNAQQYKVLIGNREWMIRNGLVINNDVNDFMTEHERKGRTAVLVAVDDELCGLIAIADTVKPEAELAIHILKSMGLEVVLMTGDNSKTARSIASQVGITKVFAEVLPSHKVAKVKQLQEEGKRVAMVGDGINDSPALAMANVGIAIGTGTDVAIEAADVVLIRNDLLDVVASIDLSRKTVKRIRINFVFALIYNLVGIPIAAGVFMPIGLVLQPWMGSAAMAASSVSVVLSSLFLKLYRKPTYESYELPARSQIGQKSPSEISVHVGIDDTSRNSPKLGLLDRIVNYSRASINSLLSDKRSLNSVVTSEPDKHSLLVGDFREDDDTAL
Description: Prior studies have shown that exogenously expressed ATP7B can activate tyrosinase in cells lacking ATP7A. For these studies, a B16 melanoma cell model was used in which tyrosinase activity can be detected by in situ oxidation of L-DOPA to DOPAchrome (10A). As shown earlier, B16 cells deleted for the ATP7A gene (ATP7A^KO) completely lack tyrosinase activity (10B). […] Quantification of tyrosinase activity in these cells is shown (10G). Data represent mean±SEM; ****p<0.0001 of three independent replicates.

[1] = Cytotoxicity in B16 cells by MTT and crystal violet assays; assay type: cell-based; details: mouse
Description: This is consistent with lower affinity of MKV1 for ATP7A (FIG. 6E).

B16 melanoma lung tumors = test: Melanin production in B16 melanoma tumors on the lungs of mice; assay type: in vivo, C57BL/6 mice; details: 50 mg/kg subcutaneously every other day for 7 days
Procedure: Previous studies have shown that ATP7A is essential for copper delivery into the secretory pathway to tyrosinase, a copper-dependent enzyme required for melanogenesis. […] To confirm that ATP7A is required for tyrosinase activity, B16 melanoma cells were generated in which the ATP7A gene was deleted by CRISPR-CAS9 to generate ATP7A^KO cells. As expected, tyrosinase activity was absent in the B16 ATP7A^KO cells. […] Wild type B16 melanoma cells were injected by tail vein into C57BL/6 mice to establish metastatic tumors on the lungs. […] Left panel images show the lungs of three different mice immediately after dissection. In control mice, darkly pigmented melanoma nodules were readily apparent on the lungs (white arrows).

in vitro = assay type: cell-based; details: mouse
Procedure: To test this hypothesis, a control compound was generated in which the sulfur atom in the thioamide was replaced with oxygen to generate a corresponding amide (MKV3-D1). […] 20C is a graph of the relationship between tyrosinase activity and compound concentration. […] 20D is a graph of the relationship between the survival of 4T1 breast cancer cells and compound concentration in the presence or absence of 10 μM copper.
Initial structural analysis focused on the importance of the sulfur in MKV3. […] It was thought that MKV3 may provide a coordinating Cu(I) ligand as a mechanism of preventing copper movement into the channel domain. To test this hypothesis, a control compound was generated in which the sulfur atom in the thioamide was replaced with oxygen to generate a corresponding amide (MKV3-D1). […] Using another assay of ATP7A inhibition, the ability of MKV3-D1 to sensitize 4T1 breast cancer cells to copper was tested.

[2] = test system: 4T1 breast cancer cells and LLC lung cancer cells; test: In vitro scratch assay of cell motility (gap closure); assay type: cell-based; details: 10 μM
Description: LOX activity is known to be important for the motility of cancer cells. In this assay, a gap (scratch) was created in a confluent monolayer of cells and closure of the gap in the presence or absence of MKV3 was monitored by video microscopy. […] Dashed lines indicate scratch starting points (12A and 12C). […] The requirement for ATP7A in cancer cell motility is consistent with its role in activation of lysyl oxidase enzymes.

N#CC(C(=O)Nc1cccc(C(F)(F)F)c1)C(=S)Nc1ccccc1Cl (centres unmarked) [MKV3]
sensitivity to copper and silver (4T1 cells; 10 μM MKV3, 4T1 cells): conferred sensitivity to as little as 5 μM copper and silver | sensitivity to other metals (4T1 cells; 10 μM MKV3, other metals up to 50 μM): did not affect the sensitivity | activation of tyrosinase activity by ATP7A (human ATP7A (hATP7A)): prevented activation of tyrosinase activity | CC50 [1]: ~75 µM | pigment of melanoma nodules on the lungs (B16 melanoma lung tumors): very little pigment | CC50 (in vitro): 63.1 µM | rate of gap closure ([2]; 4T1 cells): significantly reduced | rate of gap closure ([2]; LLC cells): significantly reduced
